Experimental data: PMC7681098 (Theranostics, 2021)
Read-outs that look alike come from different tables or passages of the source.

Legend:
THP-1 = test: Cell proliferation MTT assay; type: cell-based; conditions: Homo sapiens, 72 h, wild-type FLT3, read-out: Human leukemia cell line IC50 THP-1
Method: (§1) The conditional medium (CM) was prepared from the supernatant of HS-5 cell culture for 5 days under normal culture conditions. At the indicated time point, cell viability was evaluated by MTT assay.

MOLM13 = test: Cell proliferation MTT assay; type: cell-based; conditions: Homo sapiens, MOLM-13, 72 h, read-out: Human leukemia cell line IC50 MOLM13
Method: as §1

MV4-11 = test: Cell proliferation MTT assay; type: cell-based; conditions: Homo sapiens, 72 h, read-out: Human leukemia cell line IC50 MV4-11
Method: as §1

U937 = test: Cell proliferation MTT assay; type: cell-based; conditions: Homo sapiens, U-937, 72 h, wild-type FLT3, read-out: Human leukemia cell line IC50 U937
Method: as §1

MOLM13 cells = test: Stroma-protecting model: proliferation in HS-5 conditional medium or normal medium; type: cell-based; conditions: Homo sapiens
Method: At the indicated time point, cell viability was evaluated by MTT assay.
(A) Indicated FLT3 mutations were expressed in BaF3 cells respectively. […] The autophosphorylation level of FLT3 was visualized and compared by western blot analysis. […] The CM was prepared from HS-5 cell culture for 4 days under routine culture conditions, clarified by centrifugation, and used immediately. The CM was added to complete medium at a final concentration of 40%. Cell viabilities were measured by MTT assay. Data were shown as mean±SD. […] The FLT3 phosphorylation levels of FLT3, STAT5 and ERK 1/2 were determined by Western blot.
On the other hand, the bone marrow stroma-protecting environment containing a number of cytokines (e.g. FLT3 ligand, stromal derived factor-1, etc) could also decrease the drug efficacy of FLT3 inhibitors by activating FLT3 or its downstream effectors and building cross-talk between leukemic blasts and bone marrow microenvironment, [35].

ERK1 = biological target: T1, ERK1 (Homo sapiens, UniProt P27361); test: Kinase inhibition assay (Reaction Biology); type: biochemical; conditions: 10 μM ATP, 10-dose IC50 mode
T1 construct: purchased Reaction Biology Corporation (PA, USA)

[1] = tested on: BaF3 cells with FLT3-ITD/D835Y; test: Cell viability of transformed BaF3 cells; type: cell-based, murine; conditions: Mus musculus, BaF3; cell viability; read-out: BaF3 cells with FLT3 mutants IC50 ITD-D835Y
Method: (§2) Lentivirus packaging and construction of transformed BaF3 cells were performed as described previously. […] Supernatants were collected and used to infect BaF3 cells, and transduced BaF3 cells were selected with puromycin (1 μg/ml) to obtain stably transformed cells.
as §1

[2] = tested on: BaF3 cells with FLT3-ITD/N676D; test: Cell viability of transformed BaF3 cells; type: cell-based, murine; conditions: Mus musculus, read-out: BaF3 cells with FLT3 mutants IC50 ITD-N676D
Method: as §2, §1

BaF3 cells with FLT3-ITD = test: Cell viability of transformed BaF3 cells; type: cell-based, murine; conditions: Mus musculus, read-out: BaF3 cells with FLT3 mutants IC50 ITD
Method: as §2, §1

[3] = tested on: BaF3 cells with FLT3-D835Y; test: Cell viability of transformed BaF3 cells; type: cell-based, murine; conditions: Mus musculus, read-out: BaF3 cells with FLT3 mutants IC50 D835Y
Method: as §2, §1

[4] = tested on: BaF3 cells with FLT3-ITD/Y842C; test: Cell viability of transformed BaF3 cells; type: cell-based, murine; conditions: Mus musculus, read-out: BaF3 cells with FLT3 mutants IC50 ITD-Y842C
Method: as §2, §1

[5] = tested on: BaF3 cells with FLT3-ITD/F691L; test: Cell viability of transformed BaF3 cells; type: cell-based, murine; conditions: Mus musculus, read-out: BaF3 cells with FLT3 mutants IC50 ITD-F691L
Method: as §2, §1

MV4-11 cells = test: Bone marrow engrafted model, survival; type: in vivo, NOD-SCID mice; conditions: MV4-11 bone marrow engraftment; LT-171-861 10 mg/kg every other day, sorafenib orally every day
Method: Six-week-old female NOD-SCID mice were treated with sub-lethal dose radiation (1.8 Gy) before intravenous injection of MV4-11 cells (5×10^6) or MOLM13 cells (5×10^6).
Data were shown as mean±SD. […] Data were shown as mean±SD. (C) An engrafted tumor model was used to evaluate in vivo antitumor activity. The NOD/SCID mice were intravenously inoculated with MV4-11 cells. […] Log-rank testing was used to compare survival curves among treatment groups. […] (D) Apoptotic assays in engraft model were evaluated by TUNEL assay and cell proliferative activity was measured by Ki67 assay. Images were acquired at ×40 magnification. (E) BALB/c nude mice were subcutaneously inoculated with MV4-11 cells (5×10^6) and bodyweight of each mouse was recorded every other day. (F) Representative photo of tumors from BALB/c nude mice which were inoculated with MV4-11 cells. (G) BALB/c nude mice were subcutaneously inoculated with BaF3 cells bearing FLT3-ITD-N676D (n=6) and FLT3-ITD-F691L (n=6) respectively. […] (H) BALB/c mice were intravenously inoculated with cells used in (G). […] Log-rank testing was used to compare survival curves among treatment groups. […] (I) Representative photos of spleens dissected from mice in (H) inoculated with BaF3 cells bearing FLT-3-ITD-F691L.
Mice that received vehicle treatment died within 30 days after intravenous injection of MV4-11 cells.

T1 sequence (P27361 whole entry): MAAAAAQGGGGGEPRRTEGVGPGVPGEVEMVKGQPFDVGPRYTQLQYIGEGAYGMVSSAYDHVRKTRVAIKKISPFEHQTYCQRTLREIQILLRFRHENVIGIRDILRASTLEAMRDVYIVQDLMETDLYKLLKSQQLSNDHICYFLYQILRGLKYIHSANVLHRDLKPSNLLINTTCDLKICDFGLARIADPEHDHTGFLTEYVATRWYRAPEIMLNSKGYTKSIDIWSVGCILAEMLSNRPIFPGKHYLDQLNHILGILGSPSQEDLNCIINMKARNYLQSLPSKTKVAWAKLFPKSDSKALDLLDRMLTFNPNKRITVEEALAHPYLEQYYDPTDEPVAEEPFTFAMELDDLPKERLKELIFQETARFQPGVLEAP

Structure (SMILES)	IC50 (THP-1) [nM]	IC50 (MOLM13) [nM]	IC50 (MV4-11) [nM]	IC50 (U937) [nM]	IC50 (MOLM13 cells; MOLM-13, 72 h, read-out: IC50 proliferation of MOLM13 cells in CM) [nM]	IC50 (MOLM13 cells; MOLM-13, 72 h, read-out: IC50 proliferation of MOLM13 cells in NM) [nM]	IC50 (ERK1) [nM]	IC50 [1] [nM]	IC50 [2] [nM]	IC50 (BaF3 cells with FLT3-ITD) [nM]	IC50 [3] [nM]	IC50 [4] [nM]	IC50 [5] [nM]	survival versus vehicle (MV4-11 cells)	IC50 (MOLM13 cells; MOLM-13, HS-5 conditional medium (CM) 40%, 72 h, MTT, read-out: IC50 proliferation of MOLM13 cells in CM) [nM]	IC50 (MOLM13 cells; MOLM-13, normal medium (NM), 72 h, MTT, read-out: IC50 proliferation of MOLM13 cells in NM) [nM]
CC(C)(C)c1cc(NC(=O)Nc2ccc(-c3cn4c(n3)sc3cc(OCCN5CCOCC5)ccc34)cc2)no1 [AC220]	> 1000	1.2	1.5	> 1000	116	14.1										
O=C(Nc1ccc2[nH]nc(-c3ccncc3)c2c1)[C@@H]1CCN(CC(=O)N2CCN(c3ccc(-c4ncccn4)cc3)CC2)C1 [SCH772984, reference compound]							4.9									
CNC(=O)c1cc(Oc2ccc(NC(=O)Nc3ccc(Cl)c(C(F)(F)F)c3)cc2)ccn1 [Sorafenib, reference compound]	> 1000	5.3	3.2	> 1000				878	103	13.2	235	346	45.2	increased survival rates	1460	11.3
